ChEMBL document CHEMBL1201862, “PubChem BioAssay data set” (2004)
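Dose response: 5 concentrations. Exposure: 48 h. Format: 96-well plates. Endpoint: linear interpolation; highest concentration if not reached. Here, GI50 denotes the concentration required for 50% inhibition of growth.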 Activity calls are given as the source filed them. Rule as the data show it: active = GI50 up to about 1.1 µM and inactive = higher.

Tests used:
Test in all cases: inhibition of tumour cell growth, NCI panel, 48 h
[1] = tested on: 786-0
[2] = tested on: A498
[3] = tested on: COLO 205
[4] = tested on: DU-145
[5] = tested on: HOP-92
[6] = tested on: IGROV-1
[7] = tested on: LOX IMVI
[8] = tested on: MCF7
[9] = tested on: MDA-MB-231
[10] = tested on: MDA-N
[11] = tested on: NCI/ADR-RES
[12] = tested on: OVCAR-4
[13] = tested on: OVCAR-8
[14] = tested on: PC-3
[15] = tested on: SK-OV-3
[16] = tested on: SR
[17] = tested on: T47D
[18] = tested on: TK-10
[19] = tested on: UO-31
[20] = tested on: NCI-H226

SMILES | GI50 [1] | GI50 [2] | GI50 [3] | GI50 [4] | GI50 [5] | GI50 [6] | GI50 [7] | GI50 [8] | GI50 [9] | GI50 [10] | GI50 [11] | GI50 [12] | GI50 [13] | GI50 [14] | GI50 [15] | GI50 [16] | GI50 [17] | GI50 [18] | GI50 [19] | GI50 [20]
O=C1CC(=O)N(C2CCCCC2)C(=O)N1c1ccccc1S(=O)(=O)Oc1ccccc1 | 18.1 µM (inactive) | > 100 µM (inactive) | > 100 µM (inactive) | > 100 µM (inactive) | 12.9 µM (inactive) | 14.9 µM (inactive) | 2.59 µM (inactive) | > 100 µM (inactive) | > 100 µM (inactive) | > 100 µM (inactive) | > 100 µM (inactive) | > 100 µM (inactive) | > 100 µM (inactive) | > 100 µM (inactive) | > 100 µM (inactive) | > 100 µM (inactive) | 85.1 µM (inactive) | > 100 µM (inactive) | 18.1 µM (inactive) | 
CN1C(=O)c2c(c3c4ccccc4n(C)c3c3c2c2ccccc2n3C)C1=O | > 100 µM (inactive) | > 100 µM (inactive) | > 100 µM (inactive) | > 100 µM (inactive) | > 100 µM (inactive) | > 100 µM (inactive) | > 100 µM (inactive) | > 100 µM (inactive) | > 100 µM (inactive) | > 100 µM (inactive) | > 100 µM (inactive) | > 100 µM (inactive) | > 100 µM (inactive) | > 100 µM (inactive) | > 100 µM (inactive) | 67.3 µM (inactive) | > 100 µM (inactive) | > 100 µM (inactive) | > 100 µM (inactive) | > 100 µM (inactive)
COc1ccc(-n2c(N)c(C#N)c(C#N)c2-c2ccco2)cc1 | > 100 µM (inactive) | > 100 µM (inactive) | > 100 µM (inactive) | > 100 µM (inactive) | 16.8 µM (inactive) | 75.2 µM (inactive) | > 100 µM (inactive) | > 100 µM (inactive) | > 100 µM (inactive) | 45.5 µM (inactive) | > 100 µM (inactive) | 23.3 µM (inactive) | > 100 µM (inactive) | 46.3 µM (inactive) | > 100 µM (inactive) | > 100 µM (inactive) | 47.9 µM (inactive) | > 100 µM (inactive) | 82.8 µM (inactive) | > 100 µM (inactive)
CC1(C)CC(=O)C(Cc2ccccc2)(Cc2ccccc2)C(=O)C1 | > 100 µM (inactive) |  | > 100 µM (inactive) | > 100 µM (inactive) |  | > 100 µM (inactive) | > 100 µM (inactive) | > 100 µM (inactive) | > 100 µM (inactive) | > 100 µM (inactive) | > 100 µM (inactive) | > 100 µM (inactive) | > 100 µM (inactive) | > 100 µM (inactive) | > 100 µM (inactive) | > 100 µM (inactive) | > 100 µM (inactive) | > 100 µM (inactive) | > 100 µM (inactive) | > 100 µM (inactive)
CCCCC1C(=O)N(c2ccc(S(=O)(=O)Nc3ccccn3)cc2)N(c2ccc(O)c(C(=O)O)c2)C1=O (stereo not drawn) | > 100 µM (inactive) | > 100 µM (inactive) | > 100 µM (inactive) | > 100 µM (inactive) | > 100 µM (inactive) | > 100 µM (inactive) | > 100 µM (inactive) | > 100 µM (inactive) | > 100 µM (inactive) | > 100 µM (inactive) | > 100 µM (inactive) | > 100 µM (inactive) | > 100 µM (inactive) | > 100 µM (inactive) | > 100 µM (inactive) | > 100 µM (inactive) | > 100 µM (inactive) |  | > 100 µM (inactive) | > 100 µM (inactive)
Cc1c(C(=O)O)n2c(C)nnc2c2ccccc12 | > 100 µM (inactive) | > 100 µM (inactive) | > 100 µM (inactive) | > 100 µM (inactive) | > 100 µM (inactive) | > 100 µM (inactive) | > 100 µM (inactive) | > 100 µM (inactive) | > 100 µM (inactive) | > 100 µM (inactive) | > 100 µM (inactive) | > 100 µM (inactive) | > 100 µM (inactive) | > 100 µM (inactive) | > 100 µM (inactive) | > 100 µM (inactive) | > 100 µM (inactive) | > 100 µM (inactive) | 61.5 µM (inactive) | > 100 µM (inactive)
CCOC(=O)c1sc2nc(SC)nc(Nc3ccc4c(c3)OCO4)c2c1N | 21.6 µM (inactive) | 28.4 µM (inactive) | > 100 µM (inactive) | 35.8 µM (inactive) | 17.4 µM (inactive) | > 100 µM (inactive) | > 100 µM (inactive) | 30.6 µM (inactive) | 26 µM (inactive) | > 100 µM (inactive) | 64.6 µM (inactive) | 37.7 µM (inactive) |  | 37.8 µM (inactive) |  | > 100 µM (inactive) | 39.5 µM (inactive) | 30.9 µM (inactive) | 71.3 µM (inactive) | 71.3 µM (inactive)
Clc1cccc(-c2nc3cccc4c3n2Cc2ncccc2-4)c1 | 17.6 µM (inactive) | > 100 µM (inactive) | > 100 µM (inactive) | > 100 µM (inactive) | 44.6 µM (inactive) | 54.3 µM (inactive) |  | > 100 µM (inactive) | 94.2 µM (inactive) | > 100 µM (inactive) | > 100 µM (inactive) | 36 µM (inactive) | 92.3 µM (inactive) | 73.6 µM (inactive) | 96.8 µM (inactive) | 24 µM (inactive) | > 100 µM (inactive) | 42.2 µM (inactive) |  | 11.8 µM (inactive)
O=C1CCCC2=C1CC1=C(CCCC1=O)N2c1ccc(-c2ccccc2)cc1 | > 69.7 µM (inactive) | > 100 µM (inactive) | > 100 µM (inactive) | > 100 µM (inactive) | > 75.3 µM (inactive) | > 100 µM (inactive) | > 100 µM (inactive) | > 100 µM (inactive) | > 100 µM (inactive) | > 100 µM (inactive) | > 100 µM (inactive) | > 100 µM (inactive) | > 100 µM (inactive) | > 100 µM (inactive) | > 76.9 µM (inactive) | > 100 µM (inactive) | > 100 µM (inactive) | > 75 µM (inactive) | > 100 µM (inactive) | > 100 µM (inactive)
Cn1c(-c2ccccc2)cc(-c2ccc3c(c2)OCO3)c1-c1ccsc1 | > 100 µM (inactive) | > 100 µM (inactive) | > 100 µM (inactive) | > 100 µM (inactive) | > 100 µM (inactive) |  | > 100 µM (inactive) | > 100 µM (inactive) | > 100 µM (inactive) | > 100 µM (inactive) | > 100 µM (inactive) | > 100 µM (inactive) | > 100 µM (inactive) | > 100 µM (inactive) | > 100 µM (inactive) | > 100 µM (inactive) | > 100 µM (inactive) | > 100 µM (inactive) | > 100 µM (inactive) | > 100 µM (inactive)
COc1cc(C2C3=C(COC3=O)OC(C)(C)Oc3cc4c(cc32)OCO4)cc(OC)c1O (stereo not drawn) | 1.12 µM (active) | 1.04 µM (active) | 2.44 µM (inactive) | 1.39 µM (inactive) | 0.392 µM (active) | 0.989 µM (active) | 0.706 µM (active) | 0.364 µM (active) | 0.76 µM (active) | 0.199 µM (active) | 0.39 µM (active) | > 38.8 µM (inactive) | 0.964 µM (active) | 0.444 µM (active) | 0.757 µM (active) | 1.01 µM (active) | 0.498 µM (active) |  | 7.1 µM (inactive) | 
CCOC(=O)C1c2[nH]c3ccccc3c2CCN1C(=O)c1ccco1 (stereo not drawn) | > 10 µM (inactive) | 9.73 µM (inactive) | > 10 µM (inactive) | > 10 µM (inactive) | > 10 µM (inactive) | > 10 µM (inactive) |  | > 10 µM (inactive) | > 10 µM (inactive) | > 10 µM (inactive) | > 10 µM (inactive) | > 10 µM (inactive) | > 10 µM (inactive) | > 10 µM (inactive) | > 10 µM (inactive) | > 10 µM (inactive) | > 10 µM (inactive) | > 10 µM (inactive) |  | 
CCOC(=O)c1csc(-c2cn(C)c3c2C(=O)C(OC)=CC3=O)n1 | > 100 µM (inactive) | 24.3 µM (inactive) | 26.9 µM (inactive) | 6.05 µM (inactive) | 40.5 µM (inactive) | > 46.1 µM (inactive) | 2.6 µM (inactive) | 7.6 µM (inactive) | 18.3 µM (inactive) | 15.6 µM (inactive) | 22.5 µM (inactive) | 42.8 µM (inactive) | 45.2 µM (inactive) | 21.4 µM (inactive) | 69 µM (inactive) | > 53.5 µM (inactive) | > 95.1 µM (inactive) | > 100 µM (inactive) | 44.4 µM (inactive) | > 83 µM (inactive)
Cn1c(=O)c2nc[nH]c2n(C)c1=O [THEOPHYLLINE] | > 100 µM (inactive) |  | > 100 µM (inactive) | > 100 µM (inactive) | > 100 µM (inactive) | > 100 µM (inactive) | > 100 µM (inactive) | > 100 µM (inactive) | > 100 µM (inactive) | > 100 µM (inactive) | > 100 µM (inactive) |  | > 100 µM (inactive) | > 100 µM (inactive) |  | > 100 µM (inactive) | > 100 µM (inactive) | > 100 µM (inactive) | > 100 µM (inactive) | > 100 µM (inactive)
